One data set has as its system HIV-IIIb. Nature of the data set: Antiviral assay in MT4 cells. The data set is classed as cell-based. The conditions noted are these: read-out: EC50. The procedure, abridged:
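MT4 cells infected with HIV-IIIb (0.004 m.o.i.) or mock-infected, then plated at 2000 cells per well with compound. After 5 days at 37 °C, cell viability read by CellTiter-Glo chemiluminescence.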

For a further data set, the system named is MT4 cells. Nature of the data set: Cytotoxicity (CC50) in MT4 cells, mock-infected. It counts as cell-based. The conditions noted are these: 5 days. In short, it runs like this: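 Mock-infected MT4 cells (2000/well) exposed to compounds for 5 days at 37 °C; cell viability then read as chemiluminescence from CellTiter-Glo after brief room-temperature lysis.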

For a further data set, the target named is PXR (NR1I2) (Homo sapiens (Human), UniProt O75469). Nature of the data set: Human PXR activation assay (luciferase reporter, DPX2 cells). It counts as cell-based. The conditions noted are these: human; 15 uM; DPX2 cells; % Emax relative to rifampicin, adjusted for DMSO background; read-out: PXR % inh at 15 uM (adjusted). The method, then: (§1) Luciferase Reporter Gene Assay.
(§2) A stably transformed tumor cell line (DPX2) was plated on 96-well microtiter plates. […]. The number of viable cells was determined and the reporter gene activity was assessed. […]

The next data set has as its target OCT2 (Homo sapiens (Human), UniProt O15244). Nature of the data set: OCT2 inhibition assay (14C-TEA uptake, OCT2-transfected MDCKII cells). The data set is classed as cell-based. The method, then:
MDCKII cells were maintained in minimal essential medium (MEM) with 1% Pen/Strep, 10% fetal bovine serum, and 0.25 mg/mL hygromycin B in an incubator set at 37° C., 90% humidity and 5% CO2. 24 hours prior to assay, media containing 5 mM sodium butyrate were added to MDCKII cells in flasks, and cells were grown to 80-90% confluence. On assay day, cells were trypsinized and resuspended in Krebs-Henseleit Buffer (KHB), pH 7.4 at […]. Cells were preincubated for 15 min in assay plate before addition of test compound or substrate.
Test compounds were serially diluted in DMSO and then spiked (2 μL) into in 0.4 mL KHB buffer containing wild-type or OCT2-transfected cells and incubated for 10 minutes. Assay was initiated with the addition of 0.1 mL of 100 μM ^14C-TEA in KHB buffer (20 μM final concentration after mixing). The concentration of TEA is based on the Km. After 10 minutes of incubation, the assay mixture was quenched with addition of 0.5 mL of ice-cold 1×PBS buffer. Samples were then centrifuged at 1000 rpm for 5 min and supernatants were removed. Wash steps were repeated four times with ice-cold PBS. Finally, the cell pellets were lysed with 0.2N NaOH and let sit at room temperature for at least 30 min to ensure complete lysis. Samples were then counted on liquid scintillation counter and dpm counts were used to perform the following calculations. The % inhibition was calculated as follows: % inhibition=[1−{[OCT2]i−[WT]ni}/{[OCT2]ni−[WT]ni}]*100 where, [OCT2]i represents the dpm count in the presence of test compound for either OCT2 cells, […] of test compound for OCT2 cells and [WT]ni represents the dpm count in the absence of test compound for wild type cells, respectively.

The target in another data set is human PXR (Homo sapiens (Human), UniProt O75469). Nature of the data set: Human PXR activation assay (luciferase reporter, DPX2 cells). It counts as cell-based. The conditions noted are these: 15 uM; DPX2 cells; % Emax relative to rifampicin, adjusted for DMSO background. The method, then:
as §1, §2

A short description of data set [1]: Pharmacokinetics after intravenous infusion to male SD rats. The conditions noted are these: Sprague-Dawley, plasma, rat, IV infusion 0.5 mg/kg. It counts as in vivo. On the procedure: (§3) Pharmacokinetic analysis was performed on compounds 25b and 39 following intravenous or oral administration to rats.
(§4) The test compounds were formulated in 5% Ethanol, 55% PEG 300, and 40% water at 0.1 mg/mL for IV infusion and for oral dosing.
(§5) Each dosing group consisted of 3 male, Sprague-Dawley rats. At dosing, the animals weighed an average of 0.25 kg. The animals were fasted overnight prior to dose administration and up to 4 hr after dosing.
(§6) For the IV infusion group, the test article was administered by intravenous infusion over 30 min. The rate of infusion was adjusted according to the body weight of each animal to deliver a dose of 0.5 mg/kg. For the oral dosing group, the test article was administered by oral gavage at 5 mL/kg for a dose of 0.5 mg/kg.
For pharmacokinetic analysis of intravenously administered compounds, serial venous blood samples (approximately 0.3 mL each) were taken from each animal at 0, 0.250, 0.483, 0.583, 0.750, 1.50, 3.00, 6.00, 8.00, 12.0, 24.0, 48 and 72 hours after dosing. The blood samples were collected into Vacutainer™ tubes containing EDTA-K2 as the anti-coagulant and were immediately placed on wet ice pending centrifugation for plasma. An LC/MS/MS method was used to measure the concentration of the test compound in plasma. An aliquot of 50 μL of each plasma sample was added to a clean 96 well plate, and 200 μL of cold acetonitrile/internal standard solution (ACN)/(ISTD) was added. After protein precipitation, an aliquot of 110 μL of the supernatant was transferred to a clean 96-well plate and diluted with 300 μL of water. An aliquot of 10 μL of the above solution was injected into a ABSciex API-4000 triple quadrupole LC/MS/MS system utilizing a HyPurity C18 HPLC column (30×2.1 mm, 3μ), from Thermo-Hypersil (Part #22103-032130). An Agilent 1200 series binary pump (P/N G1312A Bin Pump) was used for elution and separation, and an HTS Pal autosampler (LEAP Technologies, Carrboro, N.C.) was used for sample injection. A API-4000 triple quadrupole mass spectrometer was utilized in multiple reaction monitoring mode (Applied Biosystems, Foster City, Calif.). Liquid chromatography was performed using two mobile phases: mobile phase A contained 0.1% formic acid and 1% isopropylamine in aqueous solution, and mobile phase B contained […]. Non-compartmental pharmacokinetic analysis was performed on the plasma concentration-time data. The resulting data are shown in the first three columns of Table 2. In Table 2, Cl refers to clearance, which characterizes the rate at which drug is removed from plasma. The lower the clearance of a drug is, the longer the elimination half-life is in the body. Vss refers to the steady state volume of distribution and indicates how well a drug is distributed into the tissues. The larger the Vss is, the longer the elimination half-life is in the body. MRT refers to mean residence time, which is a measure of the average time molecules exist in the body.

A short description of data set [2]: Plasma protein binding (equilibrium dialysis). The data set is classed as in vitro ADME. The conditions noted are these: human, plasma (sodium EDTA) dialysed against buffer; 2 μM in plasma vs. buffer, 24 hours at 37° C.; read-out: % Free HP/Buffer. The method, then: Plasma protein binding was determined using a HTD96b equilibrium dialyzer with a plate base, stainless steel pressure plate and Teflon bock. 9 Teflon bars, labeled sequentially from A through I, were assembled with two stainless steel connecting rods. Membranes were placed between two Teflon bars, with the membrane placed approximately 2 mm below the top edge of the bar and the lower membrane edge overlapped the bottom of all wells. The membrane was soaked for about 20 minutes in water, about 20 minutes in ethanol (30/70 v/v) and rinsed with water three times to remove the ethanol. It was soaked in PBS for at least 30 minutes. Plasma in sodium EDTA (Bioreclamation or equivalent) was used. The Plasma (not pH-adjusted) was stored at −80° C. and thawed at room temperature before use. The stock solution of the compounds tested was at 200 μM in DMSO. The quench solution used was 50 nM of an internal standard in 100% ACN. To prepare a 2 μM solution of the compound tested in plasma, 5 μL of a 200 μM stock solution was added to 495 μL of blank plasma. 100 μL plasma was added with 2 μM of test compound into one side of the well. 100 μL of buffer (for plasma vs. buffer) was added into another side of the well. The 96-well plate was covered using an adhesive sealing film and incubated for 24 hours at 37° C. under slow rotation. This procedure was replicated for each compound. 50 μL of plasma sample was put into a 96 well plate, 50 μL of buffer was added. 50 μL of buffer was put into a 96 well plate. 50 μL of plasma was added. 300 μL of quench solution was added and the plate sealed and shaken for 15 minutes. The material was centrifuged for 30 minutes at 3000 RPM and ˜250 μL was transferred into a short plate. The samples were analyzed by LC/MS. The resulting data is shown in the last row of Table 3 as “% Free” which corresponds to the percentage of compound not protein bound.

The subject of a further data set is HIV-1 G140S/Q148R. The data set is classed as cell-based. The conditions noted are these: MT2 cells; mean EC50 mutant / mean EC50 wt. The method, then:
(§7) For the antiviral assay utilizing MT-2 cells, 50 μL of 2× test concentration of 3-fold serially diluted compound in culture medium with 10% FBS was added to each well of a 96-well plate (9 concentrations) in triplicate. MT-2 cells were infected with wild-type or mutant variants of HIV-1 for 3 hours using a volume of viral inoculum determined to produce 90% cell killing. Fifty microliters of infected cell suspension in culture medium with 10% FBS (˜1.5×10^4 cells) was then added to each well containing 50 μL of serially diluted compound. The plates with HIV-infected cultures were then incubated at 37° C. for 5 days in the presence of the tested compounds. After 5 days of incubation, 100 μL of CellTiter-Glo™ Reagent (catalog # G7571, Promega Biosciences, Inc., Madison, Wis.) was added to each well. Cell lysis was carried out by incubating at room temperature for 10 min followed by a chemiluminescence read-out.
(§8) The chemiluminescence readout from the 10-point antiviral dose response was analyzed directly by curve fitting with equation (I) to determine the EC50.
(§9) where y=Cell Survival, M=maximum cell survival enabled by drug protection, H=baseline cell survival without drug protection, n=Hill coefficient of the antiviral dose response, m=Hill coefficient of the cytotoxicity dose response, and [I]=inhibitor concentration.
(§10) EC50 values (mean±standard deviation) were calculated from at least three independent experiments performed in triplicate. The fold-change in antiviral activity of tested compounds was calculated as a ratio of the mean EC50 for each mutant virus divided by the mean EC50 of the control WT virus.

A further data set deals with HIV-1 E92Q/N155H. It counts as cell-based. The settings on record: MT2 cells; mean EC50 mutant / mean EC50 wt. The method, then:
as §7, §8, §9, §10

The subject of the next data set is HIV-1 N155H/Q148R. It counts as cell-based. The conditions noted are these: MT2 cells; mean EC50 mutant / mean EC50 wt. The method, then: as §7, §8, §9, §10
In the next data set the test system is HIV-1 E138K/Q148K. It counts as cell-based. The conditions noted are these: MT2 cells; mean EC50 mutant / mean EC50 wt. The method, then: as §7, §8, §9, §10
The test system of another data set is wild-type HIV-1. Briefly: Antiviral assay in MT-2 cells, wild-type HIV-1. It counts as cell-based. The settings on record: Human immunodeficiency virus 1, 120 h; MT2 cells, wild-type HIV-1, 5 days; read-out: wt. On the procedure: as §7, §8, §9, §10
A short description of data set [3]: Pharmacokinetics after oral administration to male SD rats. It counts as in vivo. The settings on record: Sprague-Dawley, plasma, rat, oral gavage 0.5 mg/kg, solution, read-out: % F (solution). On the procedure:
as §3, §4, §5, §6
For pharmacokinetic analysis of orally administered compounds, serial venous blood samples (approximately 0.3 mL each) were taken from each animal at time points of 0, 0.25, 0.50, 1.0, 2.0, 4.0, 6.0, 8.0, 12.0 24.0, 48.0 and 72 hours after dosing. Blood samples were collected, prepared and analyzed in a similar way to the intravenous studies described above. Non-compartmental pharmacokinetic analysis was performed on the plasma concentration-time data. In Table 2, F (%) refers to oral bioavailability.

This note sets out measurements from US9795602B2, “Polycyclic-carbamoylpyridone compounds and their pharmaceutical use” (Gilead Sciences, Inc., priority 2014, dated 2017).

Where two headings read alike, the source gives them in different places.

Chain of OCT2 (O15244 whole entry): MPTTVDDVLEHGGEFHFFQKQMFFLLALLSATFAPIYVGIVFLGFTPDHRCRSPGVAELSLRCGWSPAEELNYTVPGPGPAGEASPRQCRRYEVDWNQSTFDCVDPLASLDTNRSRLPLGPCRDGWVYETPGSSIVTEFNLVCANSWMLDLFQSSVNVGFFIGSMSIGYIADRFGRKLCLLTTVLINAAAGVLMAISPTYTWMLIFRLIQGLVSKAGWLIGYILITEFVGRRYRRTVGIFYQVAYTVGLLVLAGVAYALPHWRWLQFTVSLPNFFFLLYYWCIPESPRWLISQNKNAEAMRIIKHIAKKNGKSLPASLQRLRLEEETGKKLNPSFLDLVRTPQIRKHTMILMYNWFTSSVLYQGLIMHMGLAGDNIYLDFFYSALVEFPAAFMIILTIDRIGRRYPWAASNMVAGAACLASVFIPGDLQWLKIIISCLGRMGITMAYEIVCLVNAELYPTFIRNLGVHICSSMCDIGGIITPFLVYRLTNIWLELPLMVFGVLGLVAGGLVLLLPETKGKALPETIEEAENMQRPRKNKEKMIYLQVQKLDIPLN
Chain of PXR (NR1I2) (O75469 whole entry): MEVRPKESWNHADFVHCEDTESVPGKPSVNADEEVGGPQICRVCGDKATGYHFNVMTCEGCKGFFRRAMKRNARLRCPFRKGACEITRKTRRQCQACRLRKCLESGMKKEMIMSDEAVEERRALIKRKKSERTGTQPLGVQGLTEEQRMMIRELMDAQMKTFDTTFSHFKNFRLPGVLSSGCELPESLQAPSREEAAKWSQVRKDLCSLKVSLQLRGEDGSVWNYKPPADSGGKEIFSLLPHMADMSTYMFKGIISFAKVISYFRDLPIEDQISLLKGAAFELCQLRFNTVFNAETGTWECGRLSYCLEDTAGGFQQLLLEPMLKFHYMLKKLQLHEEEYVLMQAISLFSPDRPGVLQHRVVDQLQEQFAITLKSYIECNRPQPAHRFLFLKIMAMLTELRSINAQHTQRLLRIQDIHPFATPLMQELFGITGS
Chain of human PXR (O75469 whole entry): as above

With `CN1C(=O)c2c(O)c(=O)c(C(=O)NCc3c(F)cc(F)cc3F)cn2[C@@H]2CCCC[C@@H]21` [Compound 4], the EC50 in the data set on HIV-IIIb (MT4 cells, HIV-IIIb, 5 days) worked out at 0.00253 µM. In the data set with MT4 cells, this molecule came in with a CC50 of 10.5 µM. Besides, at PXR (NR1I2), the inhibition at 24 h, 15 µM is 65%.
Take `O=C(NCc1c(F)cc(F)cc1F)c1cn2c(c(O)c1=O)C(=O)N(CC(F)(F)F)[C@@H]1COCC[C@@H]12` [Compound 32]: the EC50 in the data set with HIV-IIIb stood at 0.0038 µM. Besides, on OCT2, the concentration for half-maximal inhibition (IC50) is 10 µM. For the same molecule, in the data set on MT4 cells, it took 57.1 µM to reach half-maximal cytotoxicity (CC50). At human PXR, the “PXR % inh at 15 uM (adjusted)” value stood at 19%.
In [1], `C[C@@H]1CCO[C@H]2Cn3cc(C(=O)NCc4ccc(F)cc4F)c(=O)c(O)c3C(=O)N12` [Dolutegravir, reference compound] had an MRT of 12.4 h and a clearance of 0.167 mL/min/kg. In addition, the Vd in data set [1] (read-out: Vss) came to 0.17 L/kg. For the same molecule, in data set [2], the fraction unbound at 24 h, 2 µM worked out at 0.01. Also, the “Resistance fold shift G140S/Q148R vs. wild type” value in the data set with HIV-1 G140S/Q148R worked out at 3.7 fold shift. Moreover, the “Resistance fold shift E92Q/N155H vs. wild type” value in the data set with HIV-1 E92Q/N155H is 1.9 fold shift. In addition, the “Resistance fold shift N155H/Q148R vs. wild type” value with HIV-1 N155H/Q148R came out at 2.5 fold shift. In addition, in the data set with HIV-1 E138K/Q148K, the “Resistance fold shift E138K/Q148K vs. wild type” value is on record as 8.2 fold shift. Moreover, the EC50 in the data set with wild-type HIV-1 amounted to 0.0017 µM. The bioavailability in [3] came out at 84%.
